Key:
[1] = target: T1, human orexin 2 receptors (Homo sapiens (Human), UniProt O43614); assay: Radioligand Binding Assay I ([125I]orexin A competition, cell membranes); conditions: read-out: binding I hOx2R Kd
Procedure: (§1) Radioligand Binding Assay I
(§2) For crude cell membrane preparations, cells (CHO, Chinese hamster ovary or HEK, human embryonic kidney) expressing human orexin 1 or human orexin 2 receptors, were washed with HEPES (10 mM, pH 7.5), scraped off the culture plates with the same buffer, and centrifuged at 4° C. for 5 min at 2500×g. The cell pellet was either stored at −80° C. or used directly. Before the experiments, cell membranes were re-suspended in binding assay buffer (10 mM HEPES, 0.5% (w/v) bovine serum albumin, pH 7.5) by homogenisation with a Polytron homogeniser at 50 Hz for 20 s. Cell membranes were also used as made available by commercial providers.
(§3) In initial saturation experiments (to calculate Bmax), cell homogenates (150 μl) were incubated with 25-300 pM of the radioligand ([^125I]orexin A, 50 μl), 8 concentrations in triplicates in the presence or absence Orexin A (1 μM, 50 μl) to define non specific binding. Bound radioactivity was measured, and data were analysed with the program XLFIT or Graphpad Prism. Protein concentration was determined according to the Bradford/BioRad Protein Assay Kit.
(§4) In competition experiments, cell homogenates (150 μl) were incubated in assay buffer (10 mM HEPES, pH 7.5, 0.5% (w/v) bovine serum albumin, 5 mM MgCl2, 1 mM CaCl2, and tween 0.05%) for 1 h at room temperature with about 100 pM of the radioligand ([^125I]orexin A, 2100 Ci/mmole, 50 μl), and with various concentrations of compounds of the invention (50 μl) in triplicates; non-specific binding was determined in the presence of Orexin A (1 μM). Reactions were terminated by vacuum filtration, 3 washes of ice cold wash buffer (Tris-HCl pH 7.4/10 mM, with NaCl 154 mM).

[2] = target: T2, human orexin 1 receptors (Homo sapiens (Human), UniProt O43613); assay: as above; conditions: read-out: binding I hOx1R Kd
Procedure: as §1, §2, §3, §4

[3] = target: T2, human orexin 1 receptors; assay: Calcium Accumulation in Cells (FLIPR), antagonism of orexin A; assay type: cell-based; conditions: antagonism of orexin A, Cheng-Prusoff corrected; read-out: FLIPR hOx1R Ki
[4] = target: T1, human orexin 2 receptors; assay: as above; assay type: cell-based; conditions: antagonism of orexin A, Cheng-Prusoff corrected; read-out: FLIPR hOx2R Ki
Method in brief: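 Antagonism was measured as block of orexin A-evoked Ca²⁺ fluorescence (FLIPR), with orexin A added one hour after test compound (usually 10^−9–10^−5 M), which was first read alone for agonist activity. Human orexin 2 receptor cells were dye-loaded with 2 μM Fluo4-AM and 0.1 mM probenecid for 1 h.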

T1 sequence (O43614 whole entry): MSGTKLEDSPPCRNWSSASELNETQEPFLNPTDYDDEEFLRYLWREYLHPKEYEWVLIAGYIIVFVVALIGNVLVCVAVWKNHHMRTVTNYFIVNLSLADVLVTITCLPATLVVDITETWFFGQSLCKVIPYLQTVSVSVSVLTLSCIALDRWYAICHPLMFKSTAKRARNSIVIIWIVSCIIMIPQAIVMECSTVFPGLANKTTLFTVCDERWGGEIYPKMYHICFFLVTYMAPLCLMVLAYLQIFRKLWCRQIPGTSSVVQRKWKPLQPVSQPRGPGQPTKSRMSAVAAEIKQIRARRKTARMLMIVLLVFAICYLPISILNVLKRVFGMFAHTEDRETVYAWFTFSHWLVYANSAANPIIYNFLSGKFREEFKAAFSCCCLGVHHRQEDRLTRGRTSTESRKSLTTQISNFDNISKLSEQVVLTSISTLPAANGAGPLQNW
T2 sequence (O43613 whole entry): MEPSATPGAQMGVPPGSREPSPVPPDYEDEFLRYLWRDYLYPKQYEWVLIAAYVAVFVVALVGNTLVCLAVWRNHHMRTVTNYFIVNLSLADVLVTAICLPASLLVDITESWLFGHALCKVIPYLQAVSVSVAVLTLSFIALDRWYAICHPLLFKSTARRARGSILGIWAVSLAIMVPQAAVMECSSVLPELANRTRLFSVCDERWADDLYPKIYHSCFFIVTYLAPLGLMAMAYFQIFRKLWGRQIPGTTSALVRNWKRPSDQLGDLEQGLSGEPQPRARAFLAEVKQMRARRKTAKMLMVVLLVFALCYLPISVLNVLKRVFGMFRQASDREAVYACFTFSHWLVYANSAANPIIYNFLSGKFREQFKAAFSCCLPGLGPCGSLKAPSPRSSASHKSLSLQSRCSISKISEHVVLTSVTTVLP

| SMILES | Kd [1] [µM] | Kd [2] [µM] | Ki [3] [µM] | Ki [4] [µM] |
| --- | --- | --- | --- | --- |
| COc1ccc(C(C)NC(=O)COc2cc(C(F)(F)F)c3c(-c4ccccc4)nn(C)c3n2)cn1 (centres unmarked) [Example 1.67, N-(1-(6-methoxypyridin-3-yl)ethyl)-2-(1-methyl-3-phenyl-4-(trifluoromethyl)-1H-pyrazolo[3,4-b]pyridin-6-yloxy)acetamide] | 0.02 | 0.046 | 0.027 | 0.002 |
| Cc1ccc(-c2nn(C)c3nc(OCC(=O)N[C@@H](C)c4ccccc4)cc(C(F)(F)F)c23)cc1 [Example 1.48, (S)-2-(1-methyl-3-p-tolyl-4-(trifluoromethyl)-1H-pyrazolo[3,4-b]pyridin-6-yloxy)-N-(1-phenylethyl)acetamide] | 0.212 | 0.49 | 0.178 | 0.075 |
| COc1ccc(-c2nn(C)c3nc(OCC(=O)N[C@@H](C)c4ccccc4)cc(C(F)(F)F)c23)cc1 [Example 1.20] | 0.187 | 0.299 | 0.378 | 0.076 |
| COc1cccc(-c2nn(C)c3nc(OCC(=O)N[C@@H](C)c4ccccc4)cc(C(F)(F)F)c23)c1 [Example 1.19, (S)-2-(3-(3-methoxyphenyl)-1-methyl-4-(trifluoromethyl)-1H-pyrazolo[3,4-b]pyridin-6-yloxy)-N-(1-phenylethyl)acetamide] | 0.855 | 0.101 | 0.108 | 0.187 |
| COc1ccc(CNC(=O)COc2cc(C(F)(F)F)c3c(-c4ccccc4)nn(C)c3n2)cc1 [Example 1.41, N-(4-methoxybenzyl)-2-(1-methyl-3-phenyl-4-(trifluoromethyl)-1H-pyrazolo[3,4-b]pyridin-6-yloxy)acetamide] | 0.41 | 1.24 | 0.8 | 0.083 |
| Cc1cc(OCC(=O)N[C@@H](C)c2ccccc2)nc2c1c(-c1ccccc1)nn2C [Example 1.13, (S)-2-(1,4-dimethyl-3-phenyl-1H-pyrazolo[3,4-b]pyridin-6-yloxy)-N-(1-phenylethyl)acetamide] | 0.143 | 0.045 | 0.181 | 0.233 |
| C[C@H](NC(=O)COc1cc(C(F)(F)F)c2c(-c3ccc(F)cc3)nn(C)c2n1)c1ccccc1 [Example 1.23, (S)-2-(3-(4-fluorophenyl)-1-methyl-4-(trifluoromethyl)-1H-pyrazolo[3,4-b]pyridin-6-yloxy)-N-(1-phenylethyl)acetamide] | 0.278 | 0.131 | 0.128 | 0.136 |
| CCn1nccc1C(C)NC(=O)COc1cc(C(F)(F)F)c2c(-c3ccccc3)nn(C)c2n1 (centres unmarked) [Example 1.39, N-(1-(1-ethyl-1H-pyrazol-5-yl)ethyl)-2-(1-methyl-3-phenyl-4-(trifluoromethyl)-1H-pyrazolo[3,4-b]pyridin-6-yloxy)acetamide] | 1.13 | 0.33 | 0.222 | 0.353 |
| Cc1cc(OCC(=O)NC(C)CCc2ccccc2)nc2c1c(-c1ccccc1)nn2C (centres unmarked) [Example 1.16, 2-(1,4-dimethyl-3-phenyl-1H-pyrazolo[3,4-b]pyridin 6-yloxy)-N-(4-phenylbutan-2-yl)acetamide] | 0.028 | 0.116 | 0.456 | 0.049 |
| C[C@H](NC(=O)COc1cc(C(F)(F)F)c2c(-c3cccc(Br)c3)nn(C)c2n1)c1ccccc1 [Example 1.58, (S)-2-(3-(3-bromophenyl)-1-methyl-4-(trifluoromethyl)-1H-pyrazolo[3,4-b]pyridin-6-yloxy)-N-(1-phenylethyl)acetamide] | 0.436 | 0.17 | 0.077 | 0.201 |
| C[C@H](NC(=O)COc1cc(C(F)(F)F)c2c(-c3ccccc3)cn(C)c2n1)c1ccccc1 [Example 6.77, (S)-2-(1-methyl-3-phenyl-4-(trifluoromethyl)-1H-pyrrolo[2,3-b]pyridin-6-yloxy)-N-(1-phenylethyl)acetamide] | 0.24 | 0.501 | 0.148 | 0.059 |
| Cn1nc(-c2ccccc2F)c2c(C(F)(F)F)cc(OCC(=O)N[C@H]3CCc4ccccc43)nc21 [Example 1.60, (S)-N-(2,3-dihydro-1H-inden-1-yl)-2-(3-(2-fluorophenyl)-1-methyl-4-(trifluoromethyl)-1H-pyrazolo[3,4-b]pyridin-6-yloxy)acetamide] | 0.144 | 0.418 | 0.236 | 0.036 |
| C[C@H](NC(=O)COc1cc(C(F)(F)F)c2c(-c3ccccc3F)nn(C)c2n1)c1ccccc1 [Example 1.1, (S)-2-(3-(2-fluorophenyl)-1-methyl-4-(trifluoromethyl)-1H-pyrazolo[3,4-b]pyridin-6-yloxy)-N-(1-phenylethyl)acetamide] | 0.079 | 0.185 | 0.156 | 0.03 |
| CC(Oc1cc(C(F)(F)F)c2c(-c3ccccc3)nn(C)c2n1)C(=O)N[C@@H](C)c1ccccc1 (single isomer, unassigned) [Example 1.73] | 0.162 | 0.225 | 0.226 | 0.091 |
| Cc1ccc(C(C)NC(=O)COc2cc(C(F)(F)F)c3c(-c4ccccc4)nn(C)c3n2)cn1 (centres unmarked) [Example 1.77, 2-(1-methyl-3-phenyl-4-(trifluoromethyl)-1H-pyrazolo[3,4-b]pyridin-6-yloxy)-N-(1-(6-methylpyridin-3-yl)ethyl)acetamide] | 0.087 | 0.161 | 0.074 | 0.021 |
| Cn1nc(-c2cccc(F)c2)c2c(C(F)(F)F)cc(OCC(=O)N[C@H]3CCc4ccccc43)nc21 [Example 1.61, (S)-N-(2,3-dihydro-1H-inden-1-yl)-2-(3-(3-fluorophenyl)-1-methyl-4-(trifluoromethyl)-1H-pyrazolo[3,4-b]pyridin-6-yloxy)acetamide] | 0.089 | 0.204 | 0.117 | 0.033 |
| COc1ccc(C(C)NC(=O)COc2cc(C(F)(F)F)c3c(-c4ccccc4)nn(C)c3n2)cc1 (centres unmarked) [Example 1.45, N-(1-(4-methoxyphenyl)ethyl)-2-(1-methyl-3-phenyl-4-(trifluoromethyl)-1H-pyrazolo[3,4-b]pyridin-6-yloxy)acetamide] | 0.007 | 0.032 | 0.029 | 0.002 |
| Cc1ccc(CNC(=O)COc2cc(C(F)(F)F)c3c(-c4ccccc4)nn(C)c3n2)cc1 [Example 1.32, 2-(1-methyl-3-phenyl-4-(trifluoromethyl)-1H-pyrazolo[3,4-b]pyridin-6-yloxy)-N-(4-methylbenzyl)acetamide] | 1.38 | 2.6 | 0.851 | 0.115 |
| COc1ccccc1-c1nn(C)c2nc(OCC(=O)N[C@@H](C)c3ccccc3)cc(C(F)(F)F)c12 [Example 1.49, (S)-2-(3-(2-methoxyphenyl)-1-methyl-4-(trifluoromethyl)-1H-pyrazolo[3,4-b]pyridin-6-yloxy)-N-(1-phenylethyl)acetamide] | 0.715 | 0.006 | 0.015 | 0.243 |
| COc1cccc(C(C)NC(=O)COc2cc(C(F)(F)F)c3c(-c4ccccc4)nn(C)c3n2)c1 (centres unmarked) [Example 1.46, N-(1-(3-methoxyphenyl)ethyl)-2-(1-methyl-3-phenyl-4-(trifluoromethyl)-1H-pyrazolo[3,4-b]pyridin-6-yloxy)acetamide] | 0.101 | 0.042 | 0.02 | 0.026 |

— patent publication US8742106B2 (Novartis AG, priority 2009, dated 2014)
